Results: ChEMBL document CHEMBL3885881, “DrugMatrix”

Organism: Rattus norvegicus
Experiment: DrugMatrix - Regimen: Daily Repeat
Type: toxicity, organism-based, Sprague-Dawley
Design: regimen Daily Repeat, gender Male, age 6-8 weeks
Details: in vivo, iv, vehicle 100 % SALINE; for ABSOLUTE BASOPHIL / ABSOLUTE EOSINOPHIL / ABSOLUTE LYMPHOCYTE / ABSOLUTE MONOCYTE / ABSOLUTE SEGMENTED NEUTROPHIL / BASOPHIL / EOSINOPHIL / ERYTHROCYTE COUNT / HEMATOCRIT / HEMOGLOBIN / LEUKOCYTE COUNT / LYMPHOCYTE / MEAN CORPUSCULAR HEMOGLOBIN / MEAN CORPUSCULAR HEMOGLOBIN CONCENTRATION / MEAN CORPUSCULAR VOLUME / MONOCYTE / NEUTROPHIL / NUCLEATED RED BLOOD CELLS / PLATELET COUNT: tissue Blood; for ALANINE AMINOTRANSFERASE / ALBUMIN / ALKALINE PHOSPHATASE / ASPARTATE AMINOTRANSFERASE / BLOOD UREA NITROGEN / CARBON DIOXIDE / CHLORIDE / CHOLESTEROL / CREATINE PHOSPHOKINASE / CREATININE / GLUCOSE / LACTATE DEHYDROGENASE / LIPASE / PHOSPHORUS / POTASSIUM / SODIUM / TOTAL BILIRUBIN / TOTAL PROTEIN / URIC ACID: tissue Plasma
[1] = 0 mg/kg, 72 h, dose level Control, time 3 day
[2] = 0 mg/kg, 120 h, dose level Control, time 5 day
[3] = 7 mg/kg, 72 h, dose level Low, time 3 day

Q: Which “ABSOLUTE BASOPHIL” value [1] does the source give for CC(=O)N[C@@H]1[C@H](Oc2c3cc4cc2Oc2ccc(cc2Cl)[C@@H](O[C@@H]2O[C@@H](CO)[C@@H](O)[C@H](O)[C@@H]2NC(C)=O)[C@@H]2NC(=O)[C@H](NC(=O)[C@@H]4NC(=O)[C@H]4NC(=O)[C@@H](Cc5ccc(c(Cl)c5)O3)NC(=O)[C@H](N)c3ccc(O)c(c3)Oc3cc(O)cc4c3)c3ccc(O)c(c3)-c3c(O[C@H]4O[C@H](CO)[C@@H](O)[C@@H](O)[C@@H]4O)cc(O)cc3[C@@H](C(=O)O)NC2=O)O[C@@H](CO)[C@@H](O)[C@@H]1O here?
A: 0 CELLS/uL

Q: What about the “ABSOLUTE EOSINOPHIL” value [1] of the same compound?
A: 193.5 CELLS/uL

Q: What about the “ABSOLUTE LYMPHOCYTE” value [1] of the same compound?
A: 15717.5 CELLS/uL

Q: And the “ABSOLUTE MONOCYTE” value [1]?
A: 389.33 CELLS/uL

Q: What about the “ABSOLUTE SEGMENTED NEUTROPHIL” value [1] of the same compound?
A: 1883 CELLS/uL

Q: And the BASOPHIL [1]?
A: 0%

Q: And the EOSINOPHIL [1]?
A: 1.17%

Q: What about the “ERYTHROCYTE COUNT” value [1] of the same compound?
A: 5.68 x10E6/uL

Q: And the HEMATOCRIT [1]?
A: 35.83%

Q: And the HEMOGLOBIN [1]?
A: 13.48 G/DL

Q: And the “LEUKOCYTE COUNT” value [1]?
A: 18.18 x10E3/uL

Q: And the LYMPHOCYTE [1]?
A: 86.67%

Q: What about the “MEAN CORPUSCULAR HEMOGLOBIN” value [1] of the same compound?
A: 23.8 pg

Q: And the “MEAN CORPUSCULAR HEMOGLOBIN CONCENTRATION” value [1]?
A: 37.68 G/DL

Q: And the “MEAN CORPUSCULAR VOLUME” value [1]?
A: 63.27 fL

Q: And the MONOCYTE [1]?
A: 2.17%

Q: What about the NEUTROPHIL [1] of the same compound?
A: 10%

Q: And the “NUCLEATED RED BLOOD CELLS” value [1]?
A: 0 /100WBC

Q: What about the “PLATELET COUNT” value [1] of the same compound?
A: 1186.33 x10E3/uL

Q: What about the “ALANINE AMINOTRANSFERASE” value [1] of the same compound?
A: 68.5 u/L

Q: What about the ALBUMIN [1] of the same compound?
A: 4.37 G/DL

Q: What about the “ALKALINE PHOSPHATASE” value [1] of the same compound?
A: 396.33 u/L

Q: And the “ASPARTATE AMINOTRANSFERASE” value [1]?
A: 92.5 u/L

Q: What about the “BLOOD UREA NITROGEN” value [1] of the same compound?
A: 18 mg/dL

Q: And the “CARBON DIOXIDE” value [1]?
A: 24.33 mmol/L

Q: And the CHLORIDE [1]?
A: 102.4 MEQ/L

Q: And the CHOLESTEROL [1]?
A: 67.17 mg/dL

Q: And the “CREATINE PHOSPHOKINASE” value [1]?
A: 378.67 u/L

Q: And the CREATININE [1]?
A: 0.19 mg/dL

Q: And the GLUCOSE [1]?
A: 178.33 mg/dL

Q: What about the “LACTATE DEHYDROGENASE” value [1] of the same compound?
A: 245.17 u/L

Q: What about the LIPASE [1] of the same compound?
A: 9.2 u/L

Q: And the PHOSPHORUS [1]?
A: 12.37 mg/dL

Q: What about the POTASSIUM [1] of the same compound?
A: 6.48 MEQ/L

Q: What about the SODIUM [1] of the same compound?
A: 143.28 MEQ/L

Q: What about the “TOTAL BILIRUBIN” value [1] of the same compound?
A: 0.23 mg/dL

Q: What about the “TOTAL PROTEIN” value [1] of the same compound?
A: 5.65 G/DL

Q: What about the “URIC ACID” value [1] of the same compound?
A: 1.6 mg/dL

Q: What about the “ABSOLUTE BASOPHIL” value [2] of the same compound?
A: 0 CELLS/uL

Q: What about the “ABSOLUTE EOSINOPHIL” value [2] of the same compound?
A: 27.5 CELLS/uL

Q: And the “ABSOLUTE LYMPHOCYTE” value [2]?
A: 13593.17 CELLS/uL

Q: And the “ABSOLUTE MONOCYTE” value [2]?
A: 576 CELLS/uL

Q: And the “ABSOLUTE SEGMENTED NEUTROPHIL” value [2]?
A: 1836.67 CELLS/uL

Q: And the BASOPHIL [2]?
A: 0%

Q: And the EOSINOPHIL [2]?
A: 0.17%

Q: And the “ERYTHROCYTE COUNT” value [2]?
A: 5.99 x10E6/uL

Q: What about the HEMATOCRIT [2] of the same compound?
A: 37.42%

Q: And the HEMOGLOBIN [2]?
A: 13.78 G/DL

Q: And the “LEUKOCYTE COUNT” value [2]?
A: 16.03 x10E3/uL

Q: And the LYMPHOCYTE [2]?
A: 85.17%

Q: What about the “MEAN CORPUSCULAR HEMOGLOBIN” value [2] of the same compound?
A: 23.08 pg

Q: What about the “MEAN CORPUSCULAR HEMOGLOBIN CONCENTRATION” value [2] of the same compound?
A: 36.83 G/DL

Q: And the “MEAN CORPUSCULAR VOLUME” value [2]?
A: 62.6 fL

Q: And the MONOCYTE [2]?
A: 3.5%

Q: And the NEUTROPHIL [2]?
A: 11.17%

Q: What about the “NUCLEATED RED BLOOD CELLS” value [2] of the same compound?
A: 0 /100WBC

Q: What about the “PLATELET COUNT” value [2] of the same compound?
A: 1352.5 x10E3/uL

Q: And the “ALANINE AMINOTRANSFERASE” value [2]?
A: 49.83 u/L

Q: And the ALBUMIN [2]?
A: 4.25 G/DL

Q: And the “ALKALINE PHOSPHATASE” value [2]?
A: 331.33 u/L

Q: And the “ASPARTATE AMINOTRANSFERASE” value [2]?
A: 86.17 u/L

Q: What about the “BLOOD UREA NITROGEN” value [2] of the same compound?
A: 19.5 mg/dL

Q: And the “CARBON DIOXIDE” value [2]?
A: 26.67 mmol/L

Q: What about the CHLORIDE [2] of the same compound?
A: 103 MEQ/L

Q: And the CHOLESTEROL [2]?
A: 67.5 mg/dL

Q: And the “CREATINE PHOSPHOKINASE” value [2]?
A: 346.17 u/L

Q: And the CREATININE [2]?
A: 0.22 mg/dL

Q: And the GLUCOSE [2]?
A: 170.67 mg/dL

Q: And the “LACTATE DEHYDROGENASE” value [2]?
A: 405.5 u/L

Q: What about the LIPASE [2] of the same compound?
A: 8.83 u/L

Q: And the PHOSPHORUS [2]?
A: 11.3 mg/dL

Q: And the POTASSIUM [2]?
A: 6.06 MEQ/L

Q: And the SODIUM [2]?
A: 143.4 MEQ/L

Q: And the “TOTAL BILIRUBIN” value [2]?
A: 0.17 mg/dL

Q: And the “TOTAL PROTEIN” value [2]?
A: 6.22 G/DL

Q: What about the “URIC ACID” value [2] of the same compound?
A: 1.63 mg/dL

Q: What about the “ABSOLUTE BASOPHIL” value [3] of the same compound?
A: 0 CELLS/uL

Q: What about the “ABSOLUTE EOSINOPHIL” value [3] of the same compound?
A: 340.67 CELLS/uL

Q: What about the “ABSOLUTE LYMPHOCYTE” value [3] of the same compound?
A: 16096 CELLS/uL

Q: What about the “ABSOLUTE MONOCYTE” value [3] of the same compound?
A: 460.67 CELLS/uL

Q: What about the “ABSOLUTE SEGMENTED NEUTROPHIL” value [3] of the same compound?
A: 1602.67 CELLS/uL

Q: And the BASOPHIL [3]?
A: 0%

Q: And the EOSINOPHIL [3]?
A: 1.67%

Q: And the “ERYTHROCYTE COUNT” value [3]?
A: 5.86 x10E6/uL

Q: What about the HEMATOCRIT [3] of the same compound?
A: 37.6%

Q: And the HEMOGLOBIN [3]?
A: 14.23 G/DL

Q: And the “LEUKOCYTE COUNT” value [3]?
A: 18.5 x10E3/uL

Q: What about the LYMPHOCYTE [3] of the same compound?
A: 87%

Q: What about the “MEAN CORPUSCULAR HEMOGLOBIN” value [3] of the same compound?
A: 24.27 pg

Q: What about the “MEAN CORPUSCULAR HEMOGLOBIN CONCENTRATION” value [3] of the same compound?
A: 37.87 G/DL

Q: What about the “MEAN CORPUSCULAR VOLUME” value [3] of the same compound?
A: 64.13 fL

Q: And the MONOCYTE [3]?
A: 2.67%

Q: What about the NEUTROPHIL [3] of the same compound?
A: 8.67%

Q: What about the “NUCLEATED RED BLOOD CELLS” value [3] of the same compound?
A: 0 /100WBC

Q: And the “PLATELET COUNT” value [3]?
A: 1212.33 x10E3/uL

Q: What about the “ALANINE AMINOTRANSFERASE” value [3] of the same compound?
A: 48 u/L

Q: And the ALBUMIN [3]?
A: 5.03 G/DL

Q: What about the “ALKALINE PHOSPHATASE” value [3] of the same compound?
A: 341.33 u/L

Q: And the “ASPARTATE AMINOTRANSFERASE” value [3]?
A: 90.67 u/L

Q: And the “BLOOD UREA NITROGEN” value [3]?
A: 21.33 mg/dL

Q: What about the “CARBON DIOXIDE” value [3] of the same compound?
A: 21.67 mmol/L

Q: What about the CHLORIDE [3] of the same compound?
A: 98.33 MEQ/L

Q: And the CHOLESTEROL [3]?
A: 73.33 mg/dL

Q: And the “CREATINE PHOSPHOKINASE” value [3]?
A: 336 u/L

Q: What about the CREATININE [3] of the same compound?
A: 0.27 mg/dL

Q: What about the GLUCOSE [3] of the same compound?
A: 149 mg/dL

Q: And the “LACTATE DEHYDROGENASE” value [3]?
A: 410.67 u/L

Q: And the LIPASE [3]?
A: 10 u/L

Q: What about the PHOSPHORUS [3] of the same compound?
A: 11.57 mg/dL

Q: What about the POTASSIUM [3] of the same compound?
A: 7.21 MEQ/L

Q: And the SODIUM [3]?
A: 141.2 MEQ/L

Q: What about the “TOTAL BILIRUBIN” value [3] of the same compound?
A: 0.27 mg/dL

Q: What about the “TOTAL PROTEIN” value [3] of the same compound?
A: 6.07 G/DL

Q: And the “URIC ACID” value [3]?
A: 2.23 mg/dL
